PMC12291464, “Modifying Antifungal Peptides as Safe Food Preservatives” (Journal of Agricultural and Food Chemistry, 2025)
≈ marks a conversion by molar mass, not a printed value. Entries after “also recorded” stand apart in the source; their conditions may differ. Read-outs that look alike come from different tables or passages of the source. Residues, ends and D or L forms follow the SMILES beside them.

How the values were obtained:
MRSA = system: MRSA
Experimental: (§1) A1163 was grown on potato dextrose agar (PDA) medium at 37 °C for 5 days, and then the conidia were scraped and suspended in PBS with 0.025% (v/v) Tween 20, counted using a hemocytometer, and kept at 4 °C. isolated from peanuts and Pe21 (both kindly provided by Dr. Edward Sionov, ARO, Israel) were grown on PDA medium at 25 °C for 5 days, and then the conidia were scraped and suspended in PBS with 0.025% Tween 20 and kept at 4 °C. RP and methicillin-resistant (MRSA) were grown on LB agar plates, and individual colonies were picked and grown in Mueller–Hinton (MH) broth overnight at 37 °C. was grown on PDA medium at 30 °C, and individual colonies were picked and grown in yeast extract peptone dextrose (YPD) media overnight at 30 °C. All fungal and bacteria strains were maintained at −80 °C in 50% (v/v) glycerol stock.
(§2) For filamentous fungi strains, serial dilutions of 100 μL ranged from 100 to 0.78 μM for each peptide in a 96 well plate using RPMI1640 with 165 μM MOPS. A total of 80 μL of inoculum was suspended with a conidia load of 5 × 10^3 CFU/mL (final density of 2 × 10^3 CFU/mL), and 20 μL of resazurin was diluted in RPMI1640 solution of 0.02% [final concentration of 0.0002% (w/v)]. In the control, 100 μL of treatment was replaced by the same volume with medium, while the negative control was 180 μL of the medium and 20 μL of resazurin solution. Plates were incubated at 37 °C for and 25 °C for and for 24 h. The results were quantified by measuring absorbance at 570 nm with a microplate reader (Tecan). The mean absorbance values were used in subsequent calculations. The growth of resazurin reduction and growth inhibition was calculated using the following normalization: % growth=100−% reduction=abs of test agent−abs of untreated control/abs of reduced resazurin−abs of untreated control The MIC was defined as the lowest concentration of the peptide that inhibited fungal growth by 90%, allowing for only 10% of the normal growth. For bacterial and yeast strains studies, serial dilutions of 100 μL ranged from 100 to 0.78 μM for each peptide in a 96 well plate using MH media for bacteria and YPD for yeast. A total of 100 μL of the microbe in suitable media (5 × 10^5 CFU/mL) was inoculated in each well. In the untreated well (e.g., control), 100 μL of treatment was replaced by the same volume with medium, while in the negative control, media were only without microbes and peptides. After 24 h of incubation at 37 °C for bacteria and 30 °C for yeast, plates were read at 595 nm and MIC was defined as the lowest concentration of peptide that reduced the growth of the microbe to 10% growth.

A. fumigatus = conditions: RPMI1640 with MOPS, resazurin, 24 h, absorbance 570 nm; MIC = lowest concentration inhibiting growth by 90%; average ± SE, 3 biological repeats in triplicates
Experimental: as §1, §2

A. Niger = conditions: RPMI1640 with MOPS, resazurin, 24 h, absorbance 570 nm; MIC = lowest concentration inhibiting growth by 90%; average ± SE, 3 biological repeats in triplicates
Experimental: as §1, §2

P. expansum = conditions: RPMI1640 with MOPS, resazurin, 24 h, absorbance 570 nm; MIC = lowest concentration inhibiting growth by 90%; average ± SE, 3 biological repeats in triplicates
Experimental: as §1, §2

E. coli = system: E. coli
Experimental: as §1, §2

chymotrypsin = chymotrypsin (Bos taurus, UniProt P00766); test: Digestion examination of the peptides by chymotrypsin
Experimental: Peptides were dissolved in 1 mL of 100 μM NH4HCO3 to a final concentration of 4 mM, followed by the addition of 1 μL chymotrypsin (1 mg/mL), and were incubated at 37 °C and 150 rpm. At each time point, 75 μL of the solution was transferred to 90 °C for inactivation of the enzyme. After the peptides were frozen in liquid nitrogen and lyophilized, they were dissolved in DMSO and were analyzed in HPLC using Analytic Phenomenex Luna C18 (5 μm, 4.6 × 250 mm) with standard RP-HPLC conditions. The area under curve (AUC) was calculated at each time point and normalized to time = 0.
4 Peptide’s secondary structure and digestibility. (A) CD spectra of the peptides (50 μM) in DDW was measured using a J-1100 spectropolarimeter (Jasco), with the following parameters: wavelength range of 190–260 nm, bandwidth of 1 nm, data pitch of 0.1 nm, and three accumulations. A baseline spectrum was recorded using a 0.1 cm quartz cuvette filled with DDW and subtracted from the peptide spectrum to obtain the corrected CD spectrum. […] The area under the curve (AUC) was calculated at each time point and normalized to t = 0. The y axis ranges from 100%, meaning not digested at all, to 0%, meaning fully digested.

[1] = MH media, 5 × 10^5 CFU/mL, 24 h at 37 °C, read at 595 nm, MIC = growth reduced to 10%, average ± SE, 3 biological repeats in triplicates

Structure (SMILES)	MIC Values, MRSA (MRSA; [1]) [µM]	MIC Values, A. fumigatus (A. fumigatus) [µM]	MIC Values, A. Niger (A. Niger) [µM]	MIC Values, P. expansum (P. expansum) [µM]	MIC Values, E. coli (E. coli; [1]) [µM]	digestion by chymotrypsin (chymotrypsin)	MIC Values, MRSA (MRSA) [µM]	MIC Values, E. coli (E. coli) [µM]
CC[C@H](C)[C@H](NC(=O)[C@H](CCCCN)NC(=O)[C@H](CCCCN)NC(=O)[C@H](Cc1ccccc1)NC(=O)[C@H](CC(C)C)NC(=O)[C@H](CCCCN)NC(=O)[C@H](CCCCN)NC(=O)[C@H](CC(C)C)NC(=O)[C@H](Cc1ccc(O)cc1)NC(=O)[C@H](CCCCN)NC(=O)[C@H](CC(C)C)NC(=O)[C@@H](NC(=O)[C@H](CCCCN)NC(=O)[C@H](CCCCN)NC(=O)[C@H](Cc1ccccc1)NC(=O)[C@H](CC(C)C)NC(=O)[C@H](CCCCN)NC(=O)[C@H](CCCCN)NC(=O)[C@H](CC(C)C)NC(=O)[C@H](Cc1ccc(O)cc1)NC(=O)[C@H](CCCCN)NC(=O)[C@H](CC(C)C)NC(=O)[C@@H](NC(=O)[C@H](CCCCN)NC(=O)[C@H](CCCCN)NC(=O)[C@H](Cc1ccccc1)NC(=O)[C@H](CC(C)C)NC(=O)[C@H](CCCCN)NC(=O)[C@@H](N)CCCCN)[C@@H](C)CC)[C@@H](C)CC)C(=O)N[C@@H](CC(C)C)C(=O)N[C@@H](CCCCN)C(=O)N[C@@H](Cc1ccc(O)cc1)C(=O)N[C@@H](CC(C)C)C(N)=O [BP100 Triple] (H-KKLFKKILKYLKKLFKKILKYLKKLFKKILKYL-NH2)	>200	42 ± 8.3 (≈ 178 µg/mL)	>200	83 ± 17 (≈ 351 µg/mL)	>200	less prone for digestions; also recorded: not digested	–	–
CC[C@H](C)[C@H](NC(=O)[C@H](CCCCN)NC(=O)[C@H](CCCCN)NC(=O)[C@H](Cc1ccccc1)NC(=O)[C@H](CC(C)C)NC(=O)[C@H](CCCCN)NC(=O)[C@@H](N)Cc1ccccc1)C(=O)N[C@@H](CC(C)C)C(=O)N[C@@H](CCCCN)C(=O)N[C@@H](Cc1ccc(O)cc1)C(=O)N[C@@H](CC(C)C)C(N)=O [BP100 F1K]	3 ± 1 (≈ 4.32 µg/mL)	10 ± 2 (≈ 14.4 µg/mL)	42 ± 8 (≈ 60.5 µg/mL)	6 ± 0 (≈ 8.64 µg/mL)	3 ± 1 (≈ 4.32 µg/mL)	–	–	–
C[C@H](N)C(=O)N[C@@H](CCCCN)C(=O)N[C@@H](CCCNC(=N)N)C(=O)N[C@@H](CCCCN)C(=O)N[C@@H](CCCCN)C(=O)NCC(=O)N[C@@H](Cc1ccc(O)cc1)C(=O)N[C@@H](CCCCN)C(=O)N[C@@H](CCCNC(=N)N)C(=O)N[C@@H](CCCCN)C(=O)N[C@@H](Cc1ccccc1)C(=O)N[C@@H](CCCCN)C(N)=O [P-113 H4,5,12K] (H-AKRKKGYKRKFK-NH2)	>200	5 ± 1 (≈ 7.68 µg/mL)	14 ± 4 (≈ 21.5 µg/mL)	>200	>200	–	–	–
CC[C@H](C)[C@H](NC(=O)[C@H](CCCCN)NC(=O)[C@H](CCCCN)NC(=O)[C@H](Cc1ccccc1)NC(=O)[C@H](CC(C)C)NC(=O)[C@H](CCCCN)NC(=O)[C@@H](N)CCCCN)C(=O)N[C@@H](CC(C)C)C(=O)N[C@@H](CCCCN)C(=O)N[C@@H](Cc1ccc(O)cc1)C(=O)N[C@@H](CC(C)C)C(N)=O [BP100, reference compound]	–	6 ± 0 (≈ 8.53 µg/mL)	44 ± 8 (≈ 62.5 µg/mL)	13 ± 6 (≈ 18.5 µg/mL)	–	–	17 ± 4 (≈ 24.2 µg/mL)	3 ± 2 (≈ 4.26 µg/mL)
CC[C@H](C)[C@H](N)C(=O)N[C@@H](CCCCN)C(=O)N[C@@H](CC(C)C)C(=O)N[C@@H](Cc1ccccc1)C(=O)N[C@@H](CCCCN)C(=O)N[C@@H](CCCCN)C(=O)N[C@H](C(=O)N[C@@H](CC(C)C)C(=O)N[C@@H](CCCCN)C(=O)N[C@@H](Cc1ccc(O)cc1)C(=O)N[C@@H](CC(C)C)C(N)=O)[C@@H](C)CC [BP100 I1K]	3 ± 0 (≈ 4.22 µg/mL)	13 ± 0 (≈ 18.3 µg/mL)	33 ± 8 (≈ 46.4 µg/mL)	8 ± 2 (≈ 11.2 µg/mL)	3 ± 1 (≈ 4.22 µg/mL)	–	–	–
